Measurements: patent US20260152498A1, “4,5,6,7-TETRAHYDRO-1H-PYRAZOLO[4,3-c]PYRIDINE COMPOUNDS AND DERIVATIVES AS USP1 INHIBITORS” (EXELIXIS, INC., priority 2022, published 2026)

Assays:
USP1-UAF1 complex [1] = target: T1, USP1-UAF1 complex (Homo sapiens, UniProt O94782); conditions: 1.2 µM
Method: (§1) Biochemical Assay: The compounds were evaluated for their potential to inhibit USP1-UAF1 complex (Boston Biochem, Catalog: E568-050) using a fluorescence-based assay. The final concentrations of USP1-UAF1 complex protein and substrate Ubiquitin-Rhodamine-110 (R&D systems, Catalog U-555-050) used in the assay were 0.45 and 150 nM respectively. 50 mM HEPES pH. 7.5, 100 mM NaCl, 0.5 mM EDTA, 1 mM TCEP, 10% BSA, 0.01% Tween 20 buffer was used in the assay. The total assay volume was 20 μL. […] The final DMSO concentration in the assay was 1%. The compounds were pre-incubated with USP1-UAF1 complex at 25° C. for 15 min. After preincubation, required concentration of substrate was added and incubated at 25° C. for 60 min. Fluorescence at Excitation: 485 nm, Emission: 535 nm was measured in Victor-5 from Perkin Elmer.
(§2) To determine IC50 values, dose response curves were generated by plotting percentage inhibition as a function of inhibitor concentration and the data was fitted to sigmoidal non-linear regression equation (variable slope) using Graph Pad prism software V8.
(§3) The compounds were screened by the above-mentioned assay procedure.

USP1-UAF1 complex [2] = target: T1, USP1-UAF1 complex; assay: biochemical
Method: as §1, §2, §3

T1 sequence (O94782 whole entry): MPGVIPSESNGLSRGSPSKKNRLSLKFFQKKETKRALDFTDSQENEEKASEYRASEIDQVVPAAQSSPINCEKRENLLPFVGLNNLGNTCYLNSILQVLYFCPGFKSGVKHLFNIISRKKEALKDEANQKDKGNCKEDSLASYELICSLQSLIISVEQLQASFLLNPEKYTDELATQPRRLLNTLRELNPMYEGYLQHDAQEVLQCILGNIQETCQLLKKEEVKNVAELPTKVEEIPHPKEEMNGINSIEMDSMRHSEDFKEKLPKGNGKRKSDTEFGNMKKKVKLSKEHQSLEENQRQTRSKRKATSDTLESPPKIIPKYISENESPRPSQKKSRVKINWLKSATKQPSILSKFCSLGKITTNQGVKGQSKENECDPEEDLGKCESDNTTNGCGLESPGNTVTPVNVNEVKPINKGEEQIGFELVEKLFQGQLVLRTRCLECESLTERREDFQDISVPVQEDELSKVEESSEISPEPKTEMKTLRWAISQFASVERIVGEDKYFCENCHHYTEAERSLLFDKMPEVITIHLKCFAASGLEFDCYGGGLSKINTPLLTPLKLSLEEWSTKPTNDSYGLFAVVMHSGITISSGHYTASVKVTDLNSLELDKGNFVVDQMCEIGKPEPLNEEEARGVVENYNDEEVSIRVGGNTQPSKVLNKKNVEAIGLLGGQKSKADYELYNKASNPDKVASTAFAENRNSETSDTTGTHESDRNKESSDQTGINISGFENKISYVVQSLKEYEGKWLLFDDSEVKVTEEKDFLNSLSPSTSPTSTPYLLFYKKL
T1 sequence (Q8TAF3 whole entry partner): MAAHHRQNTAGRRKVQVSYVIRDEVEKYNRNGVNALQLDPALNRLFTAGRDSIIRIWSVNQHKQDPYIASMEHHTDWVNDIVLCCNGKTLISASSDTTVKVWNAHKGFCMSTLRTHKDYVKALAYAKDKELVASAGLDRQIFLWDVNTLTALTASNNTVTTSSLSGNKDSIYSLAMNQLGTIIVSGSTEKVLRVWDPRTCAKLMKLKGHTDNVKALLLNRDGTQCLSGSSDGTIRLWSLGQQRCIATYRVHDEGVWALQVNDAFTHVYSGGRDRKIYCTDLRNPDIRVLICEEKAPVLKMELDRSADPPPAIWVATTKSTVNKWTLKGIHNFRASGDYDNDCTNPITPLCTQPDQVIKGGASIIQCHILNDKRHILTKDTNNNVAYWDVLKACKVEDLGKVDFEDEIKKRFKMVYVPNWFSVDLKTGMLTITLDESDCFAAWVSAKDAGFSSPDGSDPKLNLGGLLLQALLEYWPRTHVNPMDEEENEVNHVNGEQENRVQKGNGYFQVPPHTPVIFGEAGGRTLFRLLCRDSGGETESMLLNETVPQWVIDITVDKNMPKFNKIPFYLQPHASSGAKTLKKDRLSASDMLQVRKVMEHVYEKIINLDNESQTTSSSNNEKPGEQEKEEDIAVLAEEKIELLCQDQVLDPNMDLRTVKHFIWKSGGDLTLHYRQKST

SMILES | inhibition (USP1-UAF1 complex [1]) [%] | IC50 (USP1-UAF1 complex [2]) [nM]
COc1ncnc(C2CC2)c1-c1nn(C(C)C)c2c1CN(c1ccc(-c3nc(C(F)(F)F)cn3C)nc1)CC2 [Compound 28, 3-(4-cyclopropyl-6-methoxypyrimidin-5-yl)-1-isopropyl-5-(6-(1-methyl-4-(trifluoromethyl)-1H-imidazol-2-yl)pyridin-3-yl)-4,5,6,7-tetrahydro-1H-pyrazolo[4,3-c]pyridine] | 90 | > 100
COc1ncnc(C2CC2)c1-c1nn(C)c2c1CN(c1ccc(-c3nc(C(F)(F)F)cn3C(C)C)cn1)CC2 [Compound 15, 3-(4-cyclopropyl-6-methoxypyrimidin-5-yl)-5-(5-(1-isopropyl-4-(trifluoromethyl)-1H-imidazol-2-yl)pyridin-2-yl)-1-methyl-4,5,6,7-tetrahydro-1H-pyrazolo[4,3-c]pyridine] | 96 | 50 to 100
Cc1cnn(C(C)C)c1-c1nn(C)c2c1CN(c1ccc(-c3nc(C(F)(F)F)cn3C)nc1)CC2 [Compound 62, 3-(1-isopropyl-4-methyl-1H-pyrazol-5-yl)-1-methyl-5-(6-(1-methyl-4-(trifluoromethyl)-1H-imidazol-2-yl)pyridin-3-yl)-4,5,6,7-tetrahydro-1H-pyrazolo[4,3-c]pyridine] | 95 | 50 to 100
CCc1cc(N2CCc3c(c(-c4c(OC)ncnc4C4CC4)nn3C)C2)ccc1-c1nc(C(F)(F)F)cn1C [Compound 57, 3-(4-cyclopropyl-6-methoxypyrimidin-5-yl)-5-(3-ethyl-4-(1-methyl-4-(trifluoromethyl)-1H-imidazol-2-yl)phenyl)-1-methyl-4,5,6,7-tetrahydro-1H-pyrazolo[4,3-c]pyridine] | 87 | > 100

Results, then the molecule that gave them:

inhibition (USP1-UAF1 complex [1]) [%] | IC50 (USP1-UAF1 complex [2]) [nM] | SMILES
99 | < 50 | CC(C)c1ncccc1-c1nn(C)c2c1CN(c1ccc(-c3nc(C(F)(F)F)cn3C)cc1)CC2 [Compound 3, 3-(2-isopropylpyridin-3-yl)-1-methyl-5-(4-(1-methyl-4-(trifluoromethyl)-1H-imidazol-2-yl)phenyl)-4,5,6,7-tetrahydro-1H-pyrazolo[4,3-c]pyridine]
98 | < 50 | COc1ncnc(C2CC2)c1-c1nn(C2CC2)c2c1CN(c1ccc(-c3nc(C(F)(F)F)cn3C)cc1)CC2 [Compound 30, 1-cyclopropyl-3-(4-cyclopropyl-6-methoxypyrimidin-5-yl)-5-(4-(1-methyl-4-(trifluoromethyl)-1H-imidazol-2-yl)phenyl)-4,5,6,7-tetrahydro-1H-pyrazolo[4,3-c]pyridine]
99 | < 50 | COc1ncnc(C2CC2)c1-c1nn(Cc2ccccc2)c2c1CN(c1ccc(-c3nc(C(F)(F)F)cn3C)cc1)CC2 [Compound 36, 1-benzyl-3-(4-cyclopropyl-6-methoxypyrimidin-5-yl)-5-(4-(1-methyl-4-(trifluoromethyl)-1H-imidazol-2-yl)phenyl)-4,5,6,7-tetrahydro-1H-pyrazolo[4,3-c]pyridine]
3 | > 100 | COc1ncnc(C2CC2)c1-c1nn(C)c2c1CN(c1ccc(-c3c(C)noc3C)cn1)CC2 [Compound 23, 4-(6-(3-(4-cyclopropyl-6-methoxypyrimidin-5-yl)-1-methyl-1,4,6,7-tetrahydro-5H-pyrazolo[4,3-c]pyridin-5-yl)pyridin-3-yl)-3,5-dimethylisoxazole]
100 | < 50 | COc1ncnc(C2CC2)c1-c1nn(C)c2c1CN(c1ccc(-c3nc(C(F)(F)F)cn3C3CCC3)cc1)CC2 [Compound 8, 5-(4-(1-cyclobutyl-4-(trifluoromethyl)-1H-imidazol-2-yl)phenyl)-3-(4-cyclopropyl-6-methoxypyrimidin-5-yl)-1-methyl-4,5,6,7-tetrahydro-1H-pyrazolo[4,3-c]pyridine]
